{
  "source": "patent US20050239718A1",
  "about": "“Use of hederagenin 3-O-alpha-L-rhamnopyranosyl((1-2)-[betha-D-glucopyranosyl(1-4)]-alpha-L-arabinopyranoside or an extract from pulsatillae radix containing the same as a therapeutic agent for solid tumors” (priority 2002, published 2005)",
  "key": {"NCI-H23 cells": {"system": "NCI-H23 cells", "assay": "Antitumor activity on nude mice transplanted with NCI-H23 cells", "type": "in vivo, mouse", "settings": "for Inhibition rate of tumor growth (%) on NCI-H23: 16th day after tumor cells transplantation", "experimental": "Female nude mice of the age of 5 weeks weighing 16˜25 g obtained from Harlan Co. (USA) were used as experimental animals in this experiment. The mice were used after acclimation for 1 week in an aseptic animal room. The animal room maintained the temperature of 22±2° C., the humidity of 55±5%, and the light and darkness cycle of 12 hours, which was automatically controlled. Solid feed for experimental animals was radiosterilized, and drinking water was sterilized in an autoclave. The animals were supplied with feed and drinking water ad libitum. A human tumor cell line provided by National Cancer Institute (NCI), USA, and preserved in the Korean Research Institute of Bioscience and Biotechnology (KRIBB), Korea, was used. Lung tumor cells, NCI-H23 cells, among the human tumor cells, were transplanted to the nude mice. The tumor cells of 3×10^7 cells/ml were subcutaneously transplanted to the mice at a volume of 0.3 ml/20 g body weight. The samples were intraperitoneally injected to the mice every day for 13 days, that is, from 1 day to 14th day except 8th day after tumor cells transplantation. The size of tumor formed during the injection was measured in each animal, and any change in its body weight was also measured. On 16th day after tumor cells transplantation, the nude mice were sacrificed, and the tumor was separated and weighed. To the positive control group was intraperitoneally injected adiamycin of 0.5 mg/kg body weight on 1st, 5th, 9th, and 14th day."}, "LLC cells": {"system": "LLC cells", "assay": "Antitumor activity on BDF1 mice transplanted with LLC cells", "type": "in vivo, mouse", "settings": "for Inhibition rate of tumor growth (%): i.p., WT 280, SPX1 70, SPX2 171, SPX3 30.5, SPX4 8.1, SB365 6.4, adriamycin 0.5 mg/kg", "experimental": "The mouse species used in this experiment was BDF1, and healthy male mice with the body weight of […] were used. These animals were supplied with water and foods ad libitum at a place of controlled temperature in the range of 2324° C., and were bred with an antibiotic-free mouse feed. LLC cells were subcutaneously cultured in C57BL/6 mice for 14 days. A LLC cell-containing tissue was taken and thereto was added sterilized cold physiological saline water (5 ml/g tissue) to prepare a cell suspension. The cell suspension of 0.2 ml was subcutaneously transplanted to the groin region of BDF1 mouse.\nFrom 24 hours after transplantation, the above mice were divided into several groupsconsisting of 5 mice. Then, samples, fractions WT and SPX fractions, and SB365, were dissolved in physiological saline, and were injected intraperitoneally at each concentration of 280 mg/kg (WT), 70 mg/kg SPX1), 171 mg/kg (SPX2), 30.5 mg/kg (SPX3), 8.1 mg/kg (SPX4), and 6.4 mg/kg (SB365). To the negative control group was injected only the physiological saline, and to the positive control group was injected adriamycin (0.5 mg/kg). The injection was scheduled from 24 hours after tumor transplantation to administer the samples successively once a day for 7 days, and stopped for one day, and then, was carried out for 6 more consecutive days.\nIn order to evaluate toxicity of SB365 on mice, experimental mice were weighed twice a week. Antitumor activity was calculated after measuring tumor volume of the control and test groups on 14th and 15th day after sample administration as follows: • Tumor volume (mm^3)=length (mm)×width^2 (mm^2)/2 • Inhibition rate of tumor growth (%)=(C−T)×100/C • (C: average tumor volume in the control group, T: average tumor volume in the test group)"}, "KB cells": {"system": "KB cells", "settings": "by inhibition of DNA polymerase; cited from earlier work"}, "[1]": {"settings": "14th day after transplantation of tumor cells"}, "[2]": {"settings": "15th day after transplantation of tumor cells"}},
  "data": [
    {"smiles": "COc1cccc2c1C(=O)c1c(O)c3c(c(O)c1C2=O)C[C@@](O)(C(=O)CO)C[C@@H]3O[C@H]1C[C@H](N)[C@H](O)[C@H](C)O1", "note": "[Adriamycin, reference compound]", "values": [
      {"measurement": "Inhibition rate of tumor growth (%) on NCI-H23", "setting": "NCI-H23 cells; 0.5 mg/kg i.p. on 1st, 5th, 9th, 14th day", "result": 61.5, "unit": "%"},
      {"measurement": "Inhibition rate of tumor growth (%)", "setting": "LLC cells; [1]", "result": 60, "unit": "%"},
      {"measurement": "Inhibition rate of tumor growth (%)", "setting": "LLC cells; [2]", "result": 64, "unit": "%"}
    ]},
    {"smiles": "CC1OC(OC2C(O[C@H]3CC[C@@]4(C)C(CC[C@]5(C)C4CC=C4C6CC(C)(C)CC[C@]6(C(=O)O)CC[C@]45C)[C@]3(C)CO)OCC(OC3OC(CO)C(O)C(O)C3O)C2O)C(O)C(O)C1O", "note": "(stereo partly drawn) [SB365, hederagenin 3-O-α-L-rhamnopyranosyl(1→2)-[β-D-glucopyranosyl(1→4)]-α-L-arabinopyranoside]", "values": [
      {"measurement": "Inhibition rate of tumor growth (%) on NCI-H23", "setting": "NCI-H23 cells; 1.6 mg/kg i.p.", "result": 40.1, "unit": "%"},
      {"measurement": "Inhibition rate of tumor growth (%) on NCI-H23", "setting": "NCI-H23 cells; 3.2 mg/kg i.p.", "result": 52.3, "unit": "%"},
      {"measurement": "Inhibition rate of tumor growth (%) on NCI-H23", "setting": "NCI-H23 cells; 6.4 mg/kg i.p.", "result": 82.1, "unit": "%"},
      {"measurement": "Antitumor activity (in words)", "setting": "NCI-H23 cells; nude mice transplanted with NCI-H23 cells", "result": "higher antitumor activity"},
      {"measurement": "Inhibition rate of tumor growth (%)", "setting": "LLC cells; [1]", "result": 82, "unit": "%"},
      {"measurement": "Inhibition rate of tumor growth (%)", "setting": "LLC cells; [2]", "result": 79, "unit": "%"},
      {"measurement": "Antitumor activity (in words)", "setting": "LLC cells; BDF1 mice transplanted with LLC cells", "result": "higher antitumor activity"},
      {"measurement": "Inhibition rate of tumor growth", "setting": "LLC cells; day not stated", "result": 81, "unit": "%"}
    ]},
    {"smiles": "O=C1C=C[C@@H](COC2OC(CO)C(O)C(O)C2O)O1", "note": "(stereo partly drawn) [ranunculin, Ranunculin]", "values": [
      {"measurement": "Cytotoxicity (in words)", "setting": "KB cells", "result": "has cytotoxicity"}
    ]}
  ]
}
